Test results: ChEMBL document CHEMBL1140636, “Targeting cytochrome P450 enzymes: a new approach in anti-cancer drug development” (Bioorg Med Chem, 2007)
pIC50: −log10 of the molar value.

Key:
[1] = biological target: T1, 1,25-dihydroxyvitamin D(3) 24-hydroxylase, mitochondrial (Homo sapiens, UniProt Q07973); assay: Inhibition of CYP24
T1 sequence (Q07973 whole entry): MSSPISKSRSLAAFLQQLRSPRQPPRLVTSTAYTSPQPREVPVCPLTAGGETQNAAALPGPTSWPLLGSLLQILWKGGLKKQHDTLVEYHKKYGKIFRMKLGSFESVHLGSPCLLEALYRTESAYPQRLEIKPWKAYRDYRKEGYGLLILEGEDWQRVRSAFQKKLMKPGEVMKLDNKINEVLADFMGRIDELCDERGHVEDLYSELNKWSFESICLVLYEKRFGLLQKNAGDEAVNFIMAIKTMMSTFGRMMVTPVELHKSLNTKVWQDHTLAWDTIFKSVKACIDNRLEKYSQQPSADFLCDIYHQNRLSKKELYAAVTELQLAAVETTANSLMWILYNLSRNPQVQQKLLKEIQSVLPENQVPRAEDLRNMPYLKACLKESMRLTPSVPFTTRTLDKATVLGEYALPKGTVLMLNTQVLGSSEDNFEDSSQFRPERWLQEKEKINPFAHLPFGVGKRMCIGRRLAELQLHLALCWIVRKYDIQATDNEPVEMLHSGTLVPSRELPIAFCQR

[2] = biological target: T2, Sterol 26-hydroxylase, mitochondrial (Homo sapiens, UniProt Q02318); assay: Inhibition of CYP27A1
T2 sequence (Q02318 whole entry): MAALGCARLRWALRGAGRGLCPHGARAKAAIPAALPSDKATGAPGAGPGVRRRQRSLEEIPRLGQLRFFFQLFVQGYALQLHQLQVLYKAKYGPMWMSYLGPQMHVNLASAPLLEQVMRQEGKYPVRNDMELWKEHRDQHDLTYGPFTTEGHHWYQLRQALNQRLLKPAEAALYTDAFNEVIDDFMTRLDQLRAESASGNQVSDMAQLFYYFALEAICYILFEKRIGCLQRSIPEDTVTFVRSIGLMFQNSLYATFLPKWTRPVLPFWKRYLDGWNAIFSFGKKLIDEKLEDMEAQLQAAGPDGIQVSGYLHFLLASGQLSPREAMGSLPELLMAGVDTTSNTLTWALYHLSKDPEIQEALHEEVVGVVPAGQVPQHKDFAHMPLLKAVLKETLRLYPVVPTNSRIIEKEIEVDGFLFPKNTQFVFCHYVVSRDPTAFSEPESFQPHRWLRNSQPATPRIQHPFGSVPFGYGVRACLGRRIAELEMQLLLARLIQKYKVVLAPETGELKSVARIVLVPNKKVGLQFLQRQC

[3] = biological target: T3, 25-hydroxyvitamin D-1 alpha hydroxylase, mitochondrial (Homo sapiens, UniProt O15528); assay: Inhibition of CYP27B1
T3 sequence (O15528 whole entry): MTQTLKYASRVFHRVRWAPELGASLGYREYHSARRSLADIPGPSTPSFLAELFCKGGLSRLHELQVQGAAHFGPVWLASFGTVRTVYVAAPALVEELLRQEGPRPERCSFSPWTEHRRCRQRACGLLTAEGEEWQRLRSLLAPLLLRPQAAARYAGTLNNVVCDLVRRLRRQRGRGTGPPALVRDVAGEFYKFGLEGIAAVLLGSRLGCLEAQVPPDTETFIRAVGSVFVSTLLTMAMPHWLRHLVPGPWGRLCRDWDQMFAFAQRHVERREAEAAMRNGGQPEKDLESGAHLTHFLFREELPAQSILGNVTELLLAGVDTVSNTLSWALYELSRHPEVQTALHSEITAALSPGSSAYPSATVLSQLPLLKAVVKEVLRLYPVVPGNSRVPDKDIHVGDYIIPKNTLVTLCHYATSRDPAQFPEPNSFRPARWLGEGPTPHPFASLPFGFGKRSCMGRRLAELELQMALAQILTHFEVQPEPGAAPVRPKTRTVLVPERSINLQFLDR

[4] = biological target: T1, 1,25-dihydroxyvitamin D(3) 24-hydroxylase, mitochondrial; assay: Inhibition of CYP24 in human keratinocytes; type: cell-based
[5] = biological target: T3, 25-hydroxyvitamin D-1 alpha hydroxylase, mitochondrial; assay: Inhibition of CYP27B1 in human keratinocytes; type: cell-based
[6] = biological target: T4, Cytochrome P450 1A1 (Homo sapiens, UniProt P04798); assay: Inhibition of CYP1A1; type: ADME
T4 sequence (P04798 whole entry): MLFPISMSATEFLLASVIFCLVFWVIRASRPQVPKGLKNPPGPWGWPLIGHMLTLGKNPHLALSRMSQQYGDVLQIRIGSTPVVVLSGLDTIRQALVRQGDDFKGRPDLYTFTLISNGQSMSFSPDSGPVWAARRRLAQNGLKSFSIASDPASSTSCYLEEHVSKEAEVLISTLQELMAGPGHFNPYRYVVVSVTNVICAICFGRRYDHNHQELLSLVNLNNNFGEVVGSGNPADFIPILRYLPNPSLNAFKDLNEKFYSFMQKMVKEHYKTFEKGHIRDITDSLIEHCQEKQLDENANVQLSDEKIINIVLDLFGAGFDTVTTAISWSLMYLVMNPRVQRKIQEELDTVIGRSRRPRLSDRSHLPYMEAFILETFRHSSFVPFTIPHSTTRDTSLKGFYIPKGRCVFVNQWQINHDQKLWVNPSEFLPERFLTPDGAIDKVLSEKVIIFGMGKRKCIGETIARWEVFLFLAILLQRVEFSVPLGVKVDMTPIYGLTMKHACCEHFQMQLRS

[7] = biological target: T5, Cytochrome P450 1B1 (Homo sapiens, UniProt Q16678); assay: Inhibition of CYP1B1; type: ADME
T5 sequence (Q16678 whole entry): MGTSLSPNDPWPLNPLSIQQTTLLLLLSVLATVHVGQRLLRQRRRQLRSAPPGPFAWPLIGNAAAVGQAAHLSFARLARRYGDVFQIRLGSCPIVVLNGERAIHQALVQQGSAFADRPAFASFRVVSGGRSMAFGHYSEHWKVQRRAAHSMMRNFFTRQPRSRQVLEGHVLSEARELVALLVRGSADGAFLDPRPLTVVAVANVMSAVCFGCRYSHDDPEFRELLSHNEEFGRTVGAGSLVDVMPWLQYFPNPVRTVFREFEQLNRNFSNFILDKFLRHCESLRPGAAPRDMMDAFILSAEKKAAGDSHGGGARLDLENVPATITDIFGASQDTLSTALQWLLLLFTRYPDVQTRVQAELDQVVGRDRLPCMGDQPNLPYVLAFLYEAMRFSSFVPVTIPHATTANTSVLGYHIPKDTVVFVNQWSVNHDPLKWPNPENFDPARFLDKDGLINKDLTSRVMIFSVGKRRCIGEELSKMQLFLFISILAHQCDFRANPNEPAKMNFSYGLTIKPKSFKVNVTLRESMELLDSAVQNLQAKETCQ

[8] = biological target: T6, Cytochrome P450 1A2 (Homo sapiens, UniProt P05177); assay: Inhibition of CYP1A2; type: ADME
T6 sequence (P05177 whole entry): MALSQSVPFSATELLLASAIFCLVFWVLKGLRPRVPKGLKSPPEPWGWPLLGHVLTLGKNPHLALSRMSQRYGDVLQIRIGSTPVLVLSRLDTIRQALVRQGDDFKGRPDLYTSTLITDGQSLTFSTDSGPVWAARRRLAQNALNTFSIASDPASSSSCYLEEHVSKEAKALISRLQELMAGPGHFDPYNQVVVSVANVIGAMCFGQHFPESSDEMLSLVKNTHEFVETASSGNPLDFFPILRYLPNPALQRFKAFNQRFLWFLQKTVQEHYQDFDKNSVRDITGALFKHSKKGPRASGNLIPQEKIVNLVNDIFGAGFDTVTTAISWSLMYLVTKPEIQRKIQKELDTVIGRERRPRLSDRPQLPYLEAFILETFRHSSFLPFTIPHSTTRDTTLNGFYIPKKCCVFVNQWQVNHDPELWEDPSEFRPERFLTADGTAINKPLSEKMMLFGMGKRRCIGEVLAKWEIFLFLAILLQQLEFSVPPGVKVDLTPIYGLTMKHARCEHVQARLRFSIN

[9] = biological target: T7, Aryl hydrocarbon receptor (Homo sapiens, UniProt P35869); assay: Inhibition of aryl hydrocarbon receptor
T7 sequence (P35869 whole entry): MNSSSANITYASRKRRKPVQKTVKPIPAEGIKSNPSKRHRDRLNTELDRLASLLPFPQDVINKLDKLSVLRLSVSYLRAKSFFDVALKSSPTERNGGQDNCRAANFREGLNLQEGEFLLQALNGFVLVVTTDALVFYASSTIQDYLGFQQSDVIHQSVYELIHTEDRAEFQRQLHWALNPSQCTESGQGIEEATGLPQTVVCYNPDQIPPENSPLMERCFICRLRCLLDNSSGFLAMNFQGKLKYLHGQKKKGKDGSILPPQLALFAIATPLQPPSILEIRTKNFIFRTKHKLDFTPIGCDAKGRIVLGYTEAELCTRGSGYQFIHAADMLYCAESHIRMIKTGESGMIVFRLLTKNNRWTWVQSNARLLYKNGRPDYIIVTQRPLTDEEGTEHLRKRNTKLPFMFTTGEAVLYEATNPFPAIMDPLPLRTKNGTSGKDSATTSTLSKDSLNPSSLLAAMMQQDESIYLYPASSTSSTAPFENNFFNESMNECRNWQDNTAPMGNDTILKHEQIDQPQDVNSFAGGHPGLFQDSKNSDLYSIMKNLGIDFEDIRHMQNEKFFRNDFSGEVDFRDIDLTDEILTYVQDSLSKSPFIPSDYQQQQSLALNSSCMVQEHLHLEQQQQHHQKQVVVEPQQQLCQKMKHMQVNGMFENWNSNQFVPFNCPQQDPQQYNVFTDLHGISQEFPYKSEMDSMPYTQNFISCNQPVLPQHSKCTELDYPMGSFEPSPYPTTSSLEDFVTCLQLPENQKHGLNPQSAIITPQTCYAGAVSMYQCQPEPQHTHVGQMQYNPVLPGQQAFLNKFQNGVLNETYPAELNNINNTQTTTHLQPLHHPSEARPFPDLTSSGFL

[10] = Inhibition of cigarette smoke condensate-induced growth of immortalized human BEAS-2B cells by soft agar colony assay; type: functional
[11] = biological target: T8, Cytochrome P450 26A1 (Homo sapiens, UniProt O43174); assay: Inhibition of CYP26
T8 sequence (O43174 whole entry): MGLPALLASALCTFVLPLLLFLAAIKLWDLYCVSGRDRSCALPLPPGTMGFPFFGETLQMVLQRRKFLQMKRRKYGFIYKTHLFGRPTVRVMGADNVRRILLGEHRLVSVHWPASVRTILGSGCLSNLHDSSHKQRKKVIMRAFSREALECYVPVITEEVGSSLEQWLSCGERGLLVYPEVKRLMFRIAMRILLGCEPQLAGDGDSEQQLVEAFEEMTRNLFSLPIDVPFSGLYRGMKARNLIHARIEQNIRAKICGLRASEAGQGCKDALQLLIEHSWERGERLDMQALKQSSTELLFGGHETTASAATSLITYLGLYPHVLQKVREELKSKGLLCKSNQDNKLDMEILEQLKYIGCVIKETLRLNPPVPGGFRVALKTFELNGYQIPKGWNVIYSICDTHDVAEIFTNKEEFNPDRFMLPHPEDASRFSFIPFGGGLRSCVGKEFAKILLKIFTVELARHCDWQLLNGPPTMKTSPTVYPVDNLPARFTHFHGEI

| SMILES | pIC50 [6] | pIC50 [7] | pIC50 [8] | also measured |
| --- | --- | --- | --- | --- |
| C=C1/C(=C\C=C2/CCC[C@]3(C)C([C@H](C)CC[S+](=N)([O-])c4ccccc4)=CCC23)C[C@@H](O)C[C@@H]1O (stereo partly drawn) |  |  |  | pIC50 [1]: 8.13; pIC50 [2]: < 6.00; pIC50 [3]: 6.26 |
| O=C(NCC(c1ccccc1)n1ccnc1)c1ccc(-c2ccc(Cl)cc2)cc1 (stereo not drawn) |  |  |  | pIC50 [4]: 7.82; pIC50 [5]: 6.21 |
| c1cc2ccc3cccc4ccc(c1)c2c34 [PYRENE] | 7.39 | 8.70 | 8.15 |  |
| O=c1c(O)c(-c2ccc(O)cc2)oc2cc(O)cc(O)c12 [KAEMPFEROL] |  |  |  | pIC50 [9]: 7.55; IC90 [10]: 10000 nM |
| CC#Cc1ccc2c(ccc3ccccc32)c1 | 6.82 | 7.52 | 7.22 |  |
| Clc1cccc(C(c2ccc3nc[nH]c3c2)N2C=NCC2)c1 (stereo not drawn) |  |  |  | pIC50 [11]: 5.66 |
| COc1cc(/C=C\c2cccs2)cc(OC)c1 | 7.21 | 8.70 | 7.96 |  |
| Clc1ccc(-c2cc(Cl)c(Cl)c(Cl)c2)cc1Cl [POLYCHLORINATED BIPHENYL 126] |  | 7.96 |  |  |
